Source: patent US20240390330A1, “ALPHA-2-ADRENERGIC RECEPTOR AGONISTS FOR REDUCING REDNESS AND INCREASING WHITENESS IN EYES AND OTHER OPHTHALMIC PURPOSES” (Allergan, Inc., priority 2020, published 2024)

Legend:
[1] = system: ocular hyperemia; assay: Reducing eye redness in rabbits (naive and povidone iodine induced hyperemia model); format: in vivo, New Zealand White rabbits
Protocol: In this study, Applicant evaluated the compound of Formula I on ocular hyperemia (i.e., eye redness).
The modified Hackett-McDonald Scoring scale (Table 1) was used to assess hyperemia, discomfort, conjunctival swelling and discharge. Ocular imaging was conducted via a Haag-Streit B slit lamp. Effects of these compounds were first evaluated in naïve animals following baseline measurements and then assessed in a povidone iodine induced hyperemia model.
Animals: This study was conducted in female New Zealand White rabbits (Covance) weighing approximately 2-4 kg upon arrival.
This effect can be utilized as a transient hyperemia model to evaluate for potential blanching of blood vessels and rapid reduction of hyperemia. The ocular surface was anesthetized with drops of 0.5% proparacaine. The eye was then irrigated with 5% povidone iodine ophthalmic solution and left on the ocular surface for at least 2 minutes to ensure the solution completely covers the eye. The periocular region was also wiped with povidone solution. Following 2 minutes post-irrigation, the eye was rinsed with sterile saline until the rinsed solution runs clear. Hyperemia at baseline and post ocular topical treatment was assessed via the modified Hackett-McDonald Scoring Scale shown in Table 1 above.
Ocular imaging: A Haag-Streit BP 900 slitlamp was used to evaluate the anterior segment of the eye (e.g., corneal integrity and cells in the aqueous humor). Pupils were dilated by applying drops of 1% cyclopentolate and 10% phenylephrine to the ocular surface. Ocular imaging was conducted in awake and/or anesthetized animals (7.5-10 mg/kg Ketamine/1-10 mg/kg Xylazine).

[2] = Protocol: Aliquots of the PBS only curve were quenched at time zero to be used as stability controls and calibration standards. Following centrifugation, samples were analyzed by LC-MS/MS bioanalysis. Back-calculated concentrations using the assay PBS curve were used for binding and stability calculations.
[3] = system: pupil diameter; assay: In vivo rabbit miosis model; set-up: species or system Dutch Belted rabbits; settings: for miotic efficacy compared with brimonidine: single topical dose, low-light conditions, FIG. 4 to FIG. 7
Protocol: Female Dutch Belted rabbits (Covance, Princeton, New Jersey) weighing between 2-4 kg were used for these studies. […] For topical dosing, eye drops (volume=35 μl) were instilled into the lower conjunctival sac of the test eye.
Pupil diameter was measured in both the treated and untreated eye with an Optistick to the nearest 0.5 mm. […]

[4] = system: eye redness; assay: Treatment of red eye (patient cases); format: in vivo, human; settings: person
From the text: A person complains about eye redness caused by seasonal allergies. A physician identifies the patient as having an OSH score of +2, and instructs them to administer to both of their eyes a composition comprising a compound of Formula I once or twice a day. Within the first day of administering the compound of Formula I, the patient reports decreased eye redness despite having on-going seasonal allergies, and their physician identifies the patient as having an OSH score of +0.5.
A person without any underlying health problems notices their eyes are red, making them appear tired at work. They administer to both of their eyes a composition comprising a compound of Formula I in order to increase the whiteness of their eyes for cosmetic reasons.
A person complains to their doctor that they suffer from red eyes due to minor eye irritations. The doctor prescribes a composition comprising a compound of Formula I and instructs them to administer the composition once or twice a day. The doctor also tells the person that many other marketed compositions for reducing eye redness are associated with side effects such as rebound hyperemia, dependency, and/or tachyphylaxis and that the person should report any such side effects.
Upon recommendation from a friend, they ask their doctor about possibly switching to a composition comprising the compound of Formula I since their friend told them that it works faster than brimonidine.

[5] = system: pupil size; settings: brimonidine tartrate ophthalmic solution 0.2%, presbyopic patients, different lighting conditions (McDonald II et al.); cited from earlier work
[6] = after 6 hours, 0.1% w:v, FIG. 7

Cc1c(N=C2NCCN2)ccc2[nH]cnc12 [Compound 1]
hyperemia reduction on digital redness scale compared with LUMIFY ([1]; 0.03% composition, FIG. 3): performed better than LUMIFY®
time post treatment of significant reduction in hyperemia ([1]; 0.03% composition, FIG. 3): ≤ 1 min
efficacy on ocular hyperemia compared with LUMIFY ([1]; 0.03% composition, single eye drop (~35 μl), FIG. 1 and FIG. 2): significantly greater efficacy on ocular hyperemia than LUMIFY®
reduction in the Modified Hackett-McDonald Score compared with LUMIFY ([1]; score including hyperemia, discomfort, conjunctival swelling and discharge): greater reduction in the Modified Hackett-McDonal Score
melanin binding (in words) [2]: no significant melanin binding
responder analysis of rabbits with >2.5 mm pupil change ([3]; 0.1% w:v, n=6, scotopic condition (<10 lux), FIG. 7): more efficacious than brimonidine
magnitude of pupil size reduction compared with brimonidine ([3]; FIG. 7 and FIGS. 5 and 6): greater magnitude of pupil size reduction and therapeutic activity when compared to brimonidine
pupil constriction over 9 hours ([3]; FIG. 9): significant pupil constriction even at 9 hours after dosing
effect on pupil constriction compared with Compound 3 ([3]; FIG. 10): greater effect on pupil constriction when compared to Compound 3
dose miotic response ([3]; Scotopic condition (<10 lux), FIG. 6): very potent dose miotic response
animals with greater than 2.5 mm reduction in pupil size from baseline [3, 6]: more than half
miotic effect compared with other alpha adrenergic receptor agonists including brimonidine ([3]; rabbit, in vivo): best miotic effect
miotic action (peak pupil constriction and duration of action) ([3]; room lighting conditions, FIG. 8): greater miotic action than brimonidine
animals with greater than 2.5 mm reduction in pupil size from baseline ([3]; two hours after dosing, 0.1% w:v, FIG. 7): virtually all animals
onset of eye redness reduction [4]: more effective in reducing eye redness in quite a bit less than a minute and faster than the brimonidine composition
whiteness of the eyes ([4]; cosmetic use, both eyes): noticeably whiter
eye redness ([4]; minor eye irritations, once or twice a day, a few weeks): no longer as red as they used to be
rebound hyperemia, dependency, tachyphylaxis ([4]; once or twice a day, a few weeks): has not observed any of the rebound hyperemia, dependency, or tachyphylaxis
OSH score ([4]; seasonal allergies, baseline +2, within the first day, scale of Table 2): +0.5

CCc1c(N=C2NCCN2)ccc2[nH]cnc12 [Compound 2, reference compound]
miotic efficacy compared with brimonidine [3]: much less than brimonidine

Brc1c(N=C2NCCN2)ccc2[nH]cnc12 [Compound 3, reference compound]
miotic efficacy compared with brimonidine [3]: much less than brimonidine

Brc1c(NC2=NCCN2)ccc2nccnc12 [Compound 4, brimonidine, reference compound]
melanin binding (in words) [2]: much more significant binding
animals with greater than 2.5 mm reduction in pupil size from baseline ([3]; a half hour after dosing, 0.1% w:v, FIG. 7): much less than half
animals with greater than 2.5 mm reduction in pupil size from baseline [3, 6]: virtually none
average pupil size [5]: 3.4 mm
onset of eye redness reduction [4]: takes effect in less than a minute
